The text below walks through data of PubChem BioAssay AID179 (DTP/NCI, 2004).

The subject of this assay is CEM cells HIV-1 protection, formazan growth assay. In words: NCI AIDS Antiviral Assay. The conditions noted are these: for IC50: measured here: growth of uninfected CEM cells. In short, it runs like this:
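Protection of CEM cells against HIV-1 measured as cell growth via soluble formazan read-out, with five concentrations tested on both infected and uninfected cells; failure to protect may reflect toxicity.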

Molecules are shown by their SMILES.

As to `CCOC(=O)C(=CNC(=S)Nc1ccc(OCC)cc1)C(=O)OCC`, the EC50 was above 200 µM and the IC50 is 112 µM.
Taken in the same sequence, the figures for `Nc1cc2cccc[n+]2c2cc(Cl)ccc12` were above 20 µM and 1.86 µM.
The matching figures for `O=c1oc2ccccc2n1CCCn1c(=O)oc2ccccc21`: above 200 µM and above 200 µM.
The matching figures for `CCCCCCCCCCCCCCCCOC1OC(CCSSC2OC(OCCCCCCCCCCCCCCCC)C(O)C(O)C2O)C(O)C(O)C1O` (stereo not drawn): above 3.24 µM and above 3.24 µM.
`CC(=O)Nc1cc(Cl)cc2[nH]c(C)nc12`: the EC50 was above 955 µM and the IC50 was determined as 676 µM.
The matching figures for `CN/N=C(/c1nc2ccc([N+](=O)[O-])cc2[nH]c1=O)C(O)c1ccc(C(O)/C(=N\NC)c2nc3ccc([N+](=O)[O-])cc3[nH]c2=O)cc1` (stereo not drawn): above 107 µM and 77.6 µM.
For the compound `Cc1ccc(OCC2OC(n3cnc4c(Cl)nc(N)nc43)CC2Oc2ccc(C)cc2)cc1` (stereo not drawn), the EC50 was above 200 µM and the IC50 is 66.1 µM.
Taken in the same sequence, the figures for `CCOP(=O)(OCC)/C(C#N)=C(\C)c1ccco1` were above 200 µM and above 200 µM.
The matching figures for `CC(=O)O[C@]1(C)C(=O)OC2C1C(OC(=O)C=C(C)C)C[C@](C)(OC(C)=O)[C@H]1[C@H](O)C=C(C)[C@@H]21` (stereo partly drawn): above 269 µM and 10 µM.
Taken in the same sequence, the figures for `O=C1C(Cl)C(c2cccc(O)c2)N1n1cnc2ccccc2c1=O` (stereo not drawn) were above 75.9 µM and above 75.9 µM.
For `CC1=C(C2CC(C)CC(OCOCc3ccccc3)O2)C(C)(C)CCC1` (stereo not drawn), the EC50 is above 20 µM and the IC50 is above 20 µM.
Take `C(CCCCc1nnc(N2CCCCC2)o1)CCCc1nnc(N2CCCCC2)o1`: the EC50 is above 200 µM and the IC50 was above 200 µM.
In the case of `CN(C)C(C(N)=O)c1ccccc1` (stereo not drawn), the EC50 was above 200 µM and the IC50 is above 200 µM.
For the compound `O=C1OC(=O)C2C1C1C(c3ccccc3)=C(c3ccccc3)C2(O)C2C(=O)OC(=O)C12` (stereo not drawn), the EC50 is above 17.4 µM and the IC50 worked out at 10.2 µM.
Take `C/C(=N/NC(=O)CC(=O)N(C(=O)c1ccccc1Cl)c1ccc(C)cc1)c1cc2ccccc2oc1=O`: the EC50 was above 10 µM and the IC50 is above 10 µM.
On to `O=C(Oc1c(Br)cc(Br)cc1C(=O)Oc1ccccc1)C(=O)Oc1c(Br)cc(Br)cc1C(=O)Oc1ccccc1`, for which the EC50 is above 200 µM and the IC50 came to 30.9 µM.
As to `CCN(CC)C(=S)SS(=O)(=O)c1ccc(N)cc1`, the EC50 is above 200 µM and the half-maximal inhibitory concentration (IC50) was determined as 56.2 µM.
`Cn1c(-c2cccc([N+](=O)[O-])c2)[n+](C)c2ccccc21`: the EC50 was above 200 µM and the IC50 was determined as 18.6 µM.
`CCOC(=O)CC1=NC(=Nc2cc(Cl)ccc2Cl)SC1`: the EC50 is above 77.6 µM and the IC50 was above 77.6 µM.
Take `C=C1CN(S(=O)(=O)c2ccc(C)cc2)CCCN(C(=O)OC)CCCN(S(=O)(=O)c2ccc(C)cc2)C1`: the EC50 is above 200 µM and the IC50 stood at 107 µM.
Consider `COc1ccc(CSCc2cc(OC)c(OC)c(OC)c2)cc1`, for which the EC50 was above 200 µM and the IC50 stood at 25.7 µM.
The matching figures for `OC12c3ccccc3C3CCC4(OCCO4)C3C1c1ccccc12` (stereo not drawn): above 200 µM and 141 µM.
In the case of `O=C(/C=C/c1ccccc1)CCN1CCCC1`, the EC50 is above 200 µM and the IC50 was found to be 8.13 µM.
The matching figures for `Cc1nc2ccccc2n1C(=O)c1c(F)c(F)c(F)c(F)c1F`: above 200 µM and 33.9 µM.
Taken in the same sequence, the figures for `NC(N)=NS(=O)(=O)c1ccc(Nc2c3ccccc3nc3c(C(=O)N4CCN(CCO)CC4)ccc(Cl)c23)cc1` were above 38 µM and above 38 µM.
The matching figures for `CC(C)c1cccc(C(C)C)c1NC(=O)CCC(=O)NN`: above 324 µM and above 324 µM.
Consider `O=C(c1ccc(F)cc1)c1cccc(C(=O)c2ccc(F)cc2)n1`, for which the EC50 is above 30.9 µM and the IC50 was above 30.9 µM.
For the compound `C=CCNC(=S)/N=C1\N=S(C)(=O)c2ccccc21` (stereo not drawn), the EC50 is above 891 µM and the IC50 was above 891 µM.
Take `CCCc1cc(=O)oc2c3c(c4c(c12)OC(C)(C)[C@H](O)[C@@H]4O)O[C@@H](C)[C@H](C)[C@@H]3O`: the EC50 was above 200 µM and the half-inhibitory concentration (IC50) came to 87.1 µM.
The matching figures for `Cc1ccc(-c2c(C#N)c(-c3ccc(N(C)C)cc3)c(C#N)c(=O)n2NS(=O)(=O)c2ccccc2)cc1`: above 200 µM and 18.2 µM.
Turning to `C=C=[CH][Sn]([c]1ccccc1)([c]1ccccc1)[c]1ccccc1`, the EC50 was above 35.5 µM and the IC50 came out at 0.676 µM.
The matching figures for `Cc1ccc(N=Nc2ccc(N(CCC#N)CCC#N)cc2C)c(Br)c1`: above 3.55 µM and above 3.55 µM.
The matching figures for `CCCCCCCCCCCCCCCC(=O)Nc1nc(=O)n(C2CCC(COP(=O)(O)OCC3OC(n4cc(C)c(=O)[nH]c4=O)CC3N=[N+]=[N-])O2)cc1C` (stereo not drawn): 0.363 µM and 115 µM.
The matching figures for `CCC1=NC(N/N=C/c2ccccc2O)=N/C1=C\c1ccccc1O`: above 50.1 µM and 9.12 µM.
`COc1ccc(/C=C2\C(=O)N(C(=O)Cc3ccccc3)N=C2C)cc1OC`: the EC50 is above 51.3 µM and the IC50 is above 51.3 µM.
For the compound `COC(=O)CCC(C)C1CCC2C3CC[C@@H]4CC(CO)CCC4(C)C3CCC12C` (stereo partly drawn), the EC50 is above 6.76 µM and the IC50 is above 6.76 µM.
In the case of `CCCCCCCCCCCCOP(=O)(O)OP(=O)(O)OCC1OC(n2ccc(N)nc2=O)CC1O` (stereo not drawn), the EC50 is 57.5 µM and the IC50 is above 100 µM.
The matching figures for `CC(C)(C)N1C[C@H](C(=O)c2ccccc2)[C@@H]1c1ccccc1`: above 33.9 µM and above 33.9 µM.
`CC[N+](C)(C)Cc1ccccc1Br`: the EC50 is above 200 µM and the IC50 was determined as 182 µM.
The matching figures for `Cc1cccc(N(CCC#N)S(=O)(=O)c2ccccc2)c1`: above 200 µM and 110 µM.
Taken in the same sequence, the figures for `Nn1c(CCCCCCCCc2nnc(COc3c(O)ccc4ccccc34)n2N)nnc1COc1c(O)ccc2ccccc12` were above 200 µM and 170 µM.
The matching figures for `O=C(Oc1cc(=O)c(OC(=O)c2ccccc2)co1)c1ccccc1`: above 200 µM and 110 µM.
As for `COc1ccc([N+](=O)[O-])c2c(NCCCN(C)C)c(C)c(C)nc12`, the EC50 is above 200 µM and the IC50 came to 91.2 µM.
As for `O=C(NCCCCCCNC(=O)c1cnc2ccccc2n1)c1cnc2ccccc2n1`, the EC50 is above 83.2 µM and the IC50 is above 83.2 µM.
Turning to `CN(C)c1ccc(/C=C(\NC(=O)c2ccccc2)c2nc3ccccc3c(=O)o2)cc1`, the EC50 was above 100 µM and the IC50 was above 100 µM.
As for `Nc1nccc(Nc2ccc(S(N)(=O)=O)cc2)n1`, the EC50 was above 200 µM and the IC50 stood at 135 µM.
The matching figures for `C[CH2][Sn]([CH2]C)([O]C(=O)c1ccccc1F)[O]C(=O)c1ccccc1F`: above 29.5 µM and 17.4 µM.
Taken in the same sequence, the figures for `CC[C@]1(Cc2ccc(OC)c(OC)c2)C=[N+]([O-])O[C@H](OC2CCCC2(c2ccccc2)c2ccccc2)[C@@H]1OC(C)=O` (stereo partly drawn) were above 200 µM and 3.8 µM.
In the case of `CC1(C)NC(c2ccccc2)c2ccsc2-n2cccc21` (stereo not drawn), the EC50 was above 200 µM and the IC50 is above 100 µM.
